Reference: patent US12285446B2, “Compositions and methods for improving mitochondrial function” (priority 2018, dated 2025)

Experiments:
[1] = system: phsp-6::gfp induced by human Aβ1-42; experiment: phsp-6::gfp UPRmt reporter in worms with panneuronal human Aβ1-42; type: in vivo, Caenorhabditis elegans; settings: compound treatment
Description: Thus, it is possible to screen for interventions that will reduce the UPRmt induction by modulating the Aβ aggregation or toxicity of Aβ on mitochondria.
For the screen, thirty microbial strains including the negative control bacteria E. coli OP50 were grown in appropriate culture media conditions and spotted onto standard nematode growth medium plates. ˜30 synchronized L1-larval-stage transgenic worm expressing Aβ 1-42 or tau in the pan-neurons were dropped onto the seeded plates and scored visually after 4 days under a fluorescent microscope for changes in phsp-6::gfp expression (FIG. 13).

[2] = system: UbV-gfp; experiment: UbV-gfp reporter; set-up: species or system Caenorhabditis elegans; settings: in vivo
Description: To address how Gluconacetobacter spp feeding improves mitochondrial function, a variety of transgenic worm strains were tested, including worms that carry a construct encoding a fusion protein comprising a GFP reporter protein and a gene product that is involved in stress response, mitochondrial activity, peroxisomal function, innate immune response, and different signaling pathways (Table 1; FIGS. 2C-2K; FIGS. 6C-6L; FIGS. 7A-7D).

| SMILES | induction of UPRmt (phsp-6::gfp) in Aβ worms treated with compound [1] | UbV-gfp expression [2] |
| --- | --- | --- |
| Cc1ccc2c(c1)sc(-c1ccc(N(C)C)cc1)[n+]2C.[Cl-] [Thioflavin T] | induction of UPRmt was reduced |  |
| CC(C)C[C@H](NC(=O)[C@H](Cc1ccccc1)NC(=O)c1cnccn1)B(O)O [Bortezomib] |  | stabilizes UbV-gfp |
